Measurements taken from patent US20030125234A1, “Alteration of protein stability” (priority 2001, published 2003).

Columns and labels:
Assay type in all cases: biochemical
[1] = target: T1, yeast alcohol dehydrogenase (ADH) (Saccharomyces cerevisiae, UniProt P00330); assay: ADH oxidation-induced aggregation (turbidity at 360 nm), Cu(OP)2; conditions: for inhibition index: ADH 1 mg/mL, 37° C., Cu(OP)2
T1 construct: purchased Sigma
T1 sequence (P00330 2-348 limits assumed): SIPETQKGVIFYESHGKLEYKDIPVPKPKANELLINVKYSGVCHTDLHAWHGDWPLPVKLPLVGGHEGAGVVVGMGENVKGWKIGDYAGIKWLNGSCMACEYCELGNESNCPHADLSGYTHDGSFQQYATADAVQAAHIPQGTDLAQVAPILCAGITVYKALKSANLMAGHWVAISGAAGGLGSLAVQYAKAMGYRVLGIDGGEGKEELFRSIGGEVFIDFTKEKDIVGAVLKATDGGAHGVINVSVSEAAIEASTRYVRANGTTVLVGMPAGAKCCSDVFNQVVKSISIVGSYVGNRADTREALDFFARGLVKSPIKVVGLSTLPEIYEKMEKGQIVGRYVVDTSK
Description: (§1) Bovine insulin [Sigma, St. Louis, Mo., USA] was dissolved in phosphate saline (PBS) (50 mM sodium biphosphate, 100 mM sodium chloride), pH 7.0, bovine alpha-lactalbumin [Sigma] in 50 mM sodium phosphate, 100 mM sodium chloride and 2 mM EDTA, pH 6.2, chicken egg white lysozyme [Sigma] in 100 mM Tris, 1 mM EDTA, pH 8.2, human acidic fibroblast growth factor (FGF-1) in 6.2 mM sodium biphosphate, 120 mM sodium chloride, pH 7.2, porcine somatotropin (pST) [provided by Pfizer, Inc., Groton, Conn., USA] in 10 mM phosphate, pH 6. 1, human apolactoferrin (HLF) [Sigma] in 20 mM HEPES, 154 mM NaCl, pH 7.4, porcine heart citrate synthase (CS) in 40 mM HEPES, 50 mM KCl, 10 mM (NH4)2SO4 mM potassium acetate, pH 7.8, and yeast alcohol dehydrogenase (ADH) [Sigma] in pH 7.0 PBS. Selection of buffer solutions was based on an extensive series of preliminary studies to obtain appropriate insolubilization kinetics as described below.
(§2) Copper O-phenanthroline (1,10-phenanthroline) was prepared by mixing copper sulfate hexahydrate [Fisher] and o-phenanthroline [Sigma] in a 1:2 ratio. 1 M Dithiothreitol (DTT) was prepared at pH 7.0 PBS. Polyethylene glycol (M.W. 8000, Union Carbide, Danbury, Conn., USA) (PEG) was prepared at 20 mg/mL in 10 mM phosphate, pH 6.1.
(§3) The following compounds were obtained from Sigma and used without further purification: oxalic acid, sodium malonate, succinic acid, glutaric acid, adipic acid, pimelic acid, suberic acid, azelaic acid, guanidine hydrochloride, ammonium formate, beta-alanine, 4-aminobutyric acid, 5-aminovaleric acid, 6-aminocaproic acid, 7-aminoheptanoic acid, hydrazine, ethylenediamine, 1,3-diaminopropane, 1,4-diaminobutane, 1,5-diaminopentane, 1,6-diaminohexane, 1,7-diaminoheptane, Glu-Glu, Glu-Lys, Lys-Lys, diglycine, triglycine, tetraglycine, pentaglycine, and hexaglycine. […] Triglycine and tetraglycine were dissolved in pH 8.6 PBS, while pentaglycine and hexaglycine were dissolved in pH 10.6 PBS.
(§4) Each was either dissolved in pH 7.0 PBS, or pH 6.1 10 mM phosphate, and adjusted to the same pH.
(§5) Protein aggregation was monitored for 1 hour at 360 nm using an HP8453 UV-visible spectrophotometer system [Hewlett Packard, Germany]. […] Insulin (0.25 mg/mL (4.39E-5 M)) aggregation was monitored at 25° C. after addition of potential inhibitors and 20 μL of 1 M DTT (1.27E-4 M). Alpha-lactabumin (0.4 mg/mL (2.82E-5 M)) aggregation was monitored at 37° C. in the presence of 20 μL of 1 M DTT (1.27E-4 M). Lysozyme (0.4 mg/mL (2.86E-5 M)) aggregation was monitored at 25° C. in the presence of 20 μL of 1 M DTT (1.27E-4 M). FGF-1 (50 μg/mL (3.12E-6 M)) aggregation was monitored at 50° C. Porcine somatotropin (1.27 mg/mL (5.76E-5 M)) aggregation was monitored at 60° C. in the presence of PEG 8000 (20 mg/mL) which was included to enhance the protein association process through a simple exclusion volume effect. HLF (0.4 mg/mL (5.23E-6 M)) aggregation was monitored at 43° C. in the presence of 1.27E-4 M DTT. Citrate synthase (96 μg/mL (9.80E-7 M)) aggregation was monitored at45° C. ADH (1 mg/mL (7.14E-6 M)) was monitored at 37° C. following the addition of 7.76E-5 M Cu(OP)2. Aggregation was compared to protein in the absence of the particular dipolar compound. After stirring, experiments were initiated by the addition of proteins followed by stressing reagents to 1 cm pathlength cuvettes employing a seven-position thermostatted sample holder that was cycled at 30-second intervals. Alternatively, a microtiter plate reader was employed under the same conditions in a 96 well format.
(§6) All optical density (OD)360nm versus time results were exported into Excel [Microsoft] for data analysis.

[2] = target: T2, human apolactoferrin (HLF) (Homo sapiens, UniProt P02788); assay: HLF aggregation (turbidity at 360 nm) induced by DTT; conditions: HLF 0.4 mg/mL, 43° C., DTT, head 10,000×, standard deviation in parenthesis
T2 construct: purchased Sigma
Description: as §1, §2, §3, §4, §5, §6

[3] = target: human acidic fibroblast growth factor (FGF-1) (Homo sapiens, UniProt P05230); assay: FGF-1 thermal aggregation (turbidity at 360 nm); conditions: FGF-1 50 μg/mL, 50° C., standard deviation in parenthesis
Description: as §1, §3, §4, §5
(§7) All optical density (OD)360nm versus time results were exported into Excel [Microsoft] for data analysis. […] The maximum rate of change in OD versus time plots (r) was used to determine the rate of the reaction from the slope at this point.

Bovine insulin = target: T3, Bovine insulin (Bos taurus, UniProt P01317); assay: Insulin aggregation (turbidity at 360 nm) induced by DTT; conditions: Insulin 0.25 mg/mL, 25° C., DTT; compound 100×; standard deviation in parenthesis
T3 construct: purchased Sigma, St. Louis, Mo., USA
Description: as §1, §2, §3, §4, §5, §6

bovine alpha-lactalbumin = target: T4, bovine alpha-lactalbumin (Bos taurus, UniProt P00711); assay: Alpha-lactalbumin aggregation (turbidity at 360 nm) induced by DTT; conditions: α Lactalbumin 0.4 mg/mL, 37° C., DTT; compound 1,000×; standard deviation in parenthesis
T4 construct: purchased Sigma
T4 sequence (P00711 20-142): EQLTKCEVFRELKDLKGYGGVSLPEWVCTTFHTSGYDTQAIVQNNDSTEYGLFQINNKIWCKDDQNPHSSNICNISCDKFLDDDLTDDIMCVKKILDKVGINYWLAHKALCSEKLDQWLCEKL
Description: as §1, §2, §3, §4, §5, §6

[4] = target: T5, chicken egg white lysozyme (Gallus gallus, UniProt P00698); assay: Lysozyme aggregation (turbidity at 360 nm) induced by DTT; conditions: Lysozyme 0.4 mg/mL, 25° C., DTT; compound 1,000×; standard deviation in parenthesis
T5 construct: chicken egg white lysozyme [Sigma]; purchased Sigma; host or cells: egg white
Description: as §1, §2, §3, §4, §5, §6

[5] = target: T6, porcine heart citrate synthase (CS) (Sus scrofa, UniProt P00889); assay: Citrate synthase thermal aggregation (turbidity at 360 nm); conditions: for inhibition index: CS 96 μg/mL, 45° C., standard deviation in parenthesis
T6 construct: porcine heart citrate synthase (CS); from tissue; host or cells: porcine heart
T6 sequence (P00889 28-464): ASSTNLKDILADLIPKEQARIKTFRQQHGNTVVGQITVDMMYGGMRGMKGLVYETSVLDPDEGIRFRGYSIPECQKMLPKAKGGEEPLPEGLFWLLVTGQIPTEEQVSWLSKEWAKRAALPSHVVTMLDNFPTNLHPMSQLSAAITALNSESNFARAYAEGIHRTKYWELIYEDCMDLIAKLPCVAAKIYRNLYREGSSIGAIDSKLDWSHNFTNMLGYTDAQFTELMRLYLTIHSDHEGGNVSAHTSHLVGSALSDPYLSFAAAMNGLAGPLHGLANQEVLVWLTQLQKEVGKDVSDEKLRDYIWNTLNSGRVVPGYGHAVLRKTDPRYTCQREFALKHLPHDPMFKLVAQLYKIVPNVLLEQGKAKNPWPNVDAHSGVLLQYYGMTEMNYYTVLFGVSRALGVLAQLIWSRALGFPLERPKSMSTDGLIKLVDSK
Description: as §1, §3, §4, §5, §7

[6] = target: T7, porcine somatotropin (pST) (Sus scrofa, UniProt P01248); assay: Porcine somatotropin aggregation (turbidity at 360 nm) with PEG 8000; conditions: pST 1.27 mg/mL, 60° C., standard deviation in parenthesis
T7 construct: purchased Pfizer, Inc., Groton, Conn., USA (provided, not bought)
T7 sequence (P01248 27-216): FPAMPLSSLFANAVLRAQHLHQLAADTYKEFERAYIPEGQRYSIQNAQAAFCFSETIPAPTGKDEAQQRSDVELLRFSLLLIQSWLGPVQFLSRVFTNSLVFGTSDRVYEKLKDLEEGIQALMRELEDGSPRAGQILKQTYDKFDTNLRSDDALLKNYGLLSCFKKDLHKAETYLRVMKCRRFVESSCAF
Description: as §1, §2, §3, §4, §5, §6

[7] = compound 10,000X molar excess, Infinite = complete inhibition of aggregation over one hour
[8] = compound 1,000X, standard deviation in parenthesis

T3 sequence (P01317 25-54 limits assumed): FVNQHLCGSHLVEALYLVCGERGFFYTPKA
T3 sequence (P01317 85-105 limits assumed): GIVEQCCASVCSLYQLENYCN
Sequence of human acidic fibroblast growth factor (FGF-1) (P05230 whole entry): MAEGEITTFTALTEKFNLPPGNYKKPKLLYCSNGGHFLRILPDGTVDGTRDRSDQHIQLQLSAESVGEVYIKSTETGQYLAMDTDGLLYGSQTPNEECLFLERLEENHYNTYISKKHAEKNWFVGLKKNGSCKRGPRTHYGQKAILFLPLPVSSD
T5 sequence (P00698 19-147): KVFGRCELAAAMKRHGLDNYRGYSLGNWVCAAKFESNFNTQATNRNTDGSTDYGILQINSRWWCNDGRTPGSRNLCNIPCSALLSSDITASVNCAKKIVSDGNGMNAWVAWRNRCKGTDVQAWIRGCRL
T2 sequence (P02788 20-710): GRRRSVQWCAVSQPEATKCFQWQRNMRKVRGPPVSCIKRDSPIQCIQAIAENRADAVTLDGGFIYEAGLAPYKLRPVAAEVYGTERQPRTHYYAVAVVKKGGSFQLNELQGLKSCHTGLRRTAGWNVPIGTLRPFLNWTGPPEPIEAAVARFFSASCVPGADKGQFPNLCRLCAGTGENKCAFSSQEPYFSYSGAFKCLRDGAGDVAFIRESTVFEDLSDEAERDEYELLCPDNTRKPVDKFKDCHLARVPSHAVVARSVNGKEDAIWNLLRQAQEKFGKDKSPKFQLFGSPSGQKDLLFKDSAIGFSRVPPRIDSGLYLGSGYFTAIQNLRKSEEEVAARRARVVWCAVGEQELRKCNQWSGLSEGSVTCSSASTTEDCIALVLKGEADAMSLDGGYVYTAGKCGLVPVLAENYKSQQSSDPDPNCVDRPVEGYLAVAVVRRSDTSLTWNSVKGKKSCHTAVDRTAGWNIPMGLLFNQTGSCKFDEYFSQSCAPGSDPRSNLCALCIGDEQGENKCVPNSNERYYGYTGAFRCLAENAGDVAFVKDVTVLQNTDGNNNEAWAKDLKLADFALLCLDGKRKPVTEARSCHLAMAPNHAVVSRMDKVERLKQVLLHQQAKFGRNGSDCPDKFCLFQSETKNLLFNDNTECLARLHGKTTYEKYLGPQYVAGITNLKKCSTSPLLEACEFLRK

Molecule | inhibition of ADH aggregation, in words ([1]; FIG. 1) | inhibition index ([2]; second HLF column) | inhibition index ([3]; compound 1,000×) | inhibition index ([3]; compound 10,000×) | inhibition index (Bovine insulin) | inhibition index [1, 7] | inhibition index (bovine alpha-lactalbumin) | inhibition index [4] | inhibition index ([5]; compound 10,000X) | inhibition index ([5]; compound 50,000X) | inhibition index ([6]; compound 100X) | inhibition index ([6]; compound 2,000X) | inhibition index ([2]; first HLF column) | inhibition index [1, 8] | inhibition index ([5]; compound 1,000X) | inhibition of citrate synthase aggregation, in words [5]
[Cl-].[Na+] [NaCl] | negligible effect on aggregation |  |  |  |  |  |  |  |  |  |  |  |  |  |  | 
N.O=CO [ammonium formate] |  | 5.8 (1.1) | 0.9 (0.1) | 1.3 (0.3) | 1.2 (0.5) | 1.2 (0.1) | 0.8 (0.3) | 1.5 (0.3) | 0.6 (0.0) | 1.2 (0.3) |  |  |  |  |  | 
O=C(O)CCCCCCCC(=O)O [azelaate, azelaic acid] |  | 1455.0 | 1.9 (0.2) | 6.1 (2.6) | 1.5 (0.4) |  | 2.3 (0.6) | 1.0 (0.2) | 0.7 (0.6) | 4.4 (1.8) | 0.6 (0.0) | 1.3 (0.3) |  |  |  | 
Cl.N=C(N)N [guanidine HCl, guanidine hydrochloride] |  | 0.9 (0.1) | 1.2 (0.2) | 2.8 (0.9) | 0.9 (0.4) | 0.2 (0.1) | 1.7 (0.6) | 0.9 (0.2) | 0.6 (0.4) | 0.4 (0.1) |  |  |  |  |  | 
CH3—NH2-(Glu)^−-(Gly)n-(Glu)^−-COO^− [CH3—NH2—(E)^−—(G)2—(E)^−—COO^−] |  |  | 2.5 (0.6) |  | 1.0 (0.2) |  | 0.4 (0.2) | 0.8 (0.4) |  |  |  |  | 1.7 (0.2) | 1.1 (0.1) | 0.9 (0.2) | 
CH3—NH2-(Glu)^−-(Gly)n-(Glu)^−-COO^− [CH3—NH2—(E)^−—(G)4—(E)^−—COO^−] |  |  | 1.6 (0.2) |  | 1.4 (0.6) |  | 0.7 (0.4) | 0.9 (0.3) |  |  |  |  | 1.7 (0.3) | 1.4 (0.1) | 0.7 (0.1) | 
CH3—NH2-(Glu)^−-(Gly)n-(Glu)^−-COO^− [CH3—NH2—(E)^−—(G)5—(E)^−—COO^−] |  |  | 12.3 (0.4) |  | 1.3 (0.1) |  |  | 0.1 (0.1) |  |  |  |  | 1.6 (0.1) | 1.2 (0.1) | 0.6 (0.1) | 
Glu-Lys |  | 44.5 | 1.6 (0.3) | 11.0 (3.0) | 1.0 (0.1) | 18.4 | 1.0 (0.1) | 1.0 (0.4) | 1.6 (0.2) | 21.5 |  |  | 9.8 (0.3) | 1.7 (0.1) | 0.8 (0.2) | Potent inhibitors
^+NH3-(Lys)^+-(Gly)n-(Lys)^+-CONH2 [^+NH3—(K)^+—(G)1—(K)^+—CONH2] |  |  | 2.3 (0.4) |  | 0.9 (0.1) |  | 0.5 (0.2) | 0.9 (0.2) |  |  |  |  | 1.5 (0.2) | 1.2 (0.1) | 1.0 (0.3) | 
^+NH3-(Lys)^+-(Gly)n-(Lys)^+-CONH2 [^+NH3—(K)^+—(G)3—(K)^+—CONH2] |  |  | 1.5 (0.4) |  | 0.9 (0.3) |  | 0.8 (0.1) | 1.2 (0.7) |  |  |  |  | 2.1 (0.1) | 1.2 (0.1) | 0.6 (0.1) | 
